Measurements as given in patent US8552002B2 (Novartis AG, priority 2004, dated 2013).

Key:
Assay type in all cases: biochemical
FGFR3 (K650E) = target: T1, FGFR3 (K650E) (Homo sapiens, UniProt P22607, K650E); assay: Recombinant GST-FGFR-3-K650E tyrosine kinase assay (33P into poly(Glu,Tyr)); settings: 10 μM; Examples 1 to 169; read-out: FGFR3 (K650E) inhibition at 10 μM
T1 construct: amino acids 411-806 of the cytoplasmic domain of human FGFR-3, N-terminally fused to GST; made in house; host or cells: Sf9 insect cells (baculovirus)

Tek = target: T2, Tek (Homo sapiens, UniProt Q02763); assay: Recombinant GST-Tek (Tie-2) tyrosine kinase assay (33P into poly(Glu,Tyr)); settings: Examples 1 to 169
T2 construct: amino acids 773-1124 of the cytoplasmic kinase domain of human Tek, N-terminally fused to GST; made in house; host or cells: Sf9 insect cells (baculovirus)
Excerpt: (Tie-2/Tek): The baculovirus donor vector pFbacG01 was used to generate a recombinant baculovirus that expressed the amino acid region amino acids 773-1124 of the cytoplasmic kinase domain of human Tek, N-terminally fused to GST (Provided by Dr. Marmé, Institute of Molecular Medicine, Freiburg, Germany based on a Research Collaboration). Tek was recloned into the pFbacG01 transfer vector by EcoRI excision and ligation into EcoRI digested pFbacG01 (FBG-Tie2/Tek).
Production of virus: Transfer vectors containing the kinase domains were transfected into the DH10Bac cell line (GIBCO) and plated on selective agar plates. Colonies without insertion of the fusion sequence into the viral genome (carried by the bacteria) are blue. Single white colonies were picked and viral DNA (bacmid) isolated from the bacteria by standard plasmid purification procedures. Sf9 cells or Sf21 cells were then transfected in 25 cm^2 flasks with the viral DNA using Cellfectin reagent.
Determination of small scale protein expression in Sf9 cells: Virus containing media was collected from the transfected cell culture and used for infection to increase its titer. Virus containing media obtained after two rounds of infection was used for large-scale protein expression. For large-scale protein expression 100 cm^2 round tissue culture plates were seeded with 5×10^7 cells/plate and infected with 1 mL of virus-containing media (approx. 5 MOIs). After 3 days the cells were scraped off the plate and centrifuged at 500 rpm for 5 min. Cell pellets from 10-20, 100 cm^2 plates, were resuspended in 50 mL of ice-cold lysis buffer (25 mMTris-HCl, pH7.5, 2 mMEDTA, 1% NP-40, 1 mM DTT, 1 mMP MSF). The cells were stirred on ice for 15 min and then centrifuged at 5000 rpms for 20 min.
Purification of GST-tagged proteins: The centrifuged cell lysate was loaded onto a 2 mL glutathione-sepharose column and washed three times with 10 mL of 25 mM Tris-HCl, pH 7.5, 2 mM EDTA, 1 mM DTT, 200 mM NaCl. The GST-tagged proteins were then eluted by 10 applications (1 mL each) of 25 mM Tris-HCl, pH 7.5, 10 mM reduced-glutathione, 100 mM NaCl, 1 mM DTT, 10% Glycerol and stored at −70° C.
Measure of enzyme activity: Tyrosine protein kinase assays with either purified GST-Ret, GST-Tek or GST-FGFR-3-K650E were carried out in a final volume of 30 μL with final concentrations of the following components: Ret included 15 ng of GST-Ret, 20 mM Tris-HCl, pH 7.5, 1 mM MnCl2, 10 mM MgCl2, 1 mM DTT, 3 μg/mL poly(Glu,Tyr) 4:1, 1% DMSO and 2.0 μM ATP (γ-[^33P]-ATP 0.1 μCi). Tek included 150 ng of GST-Tek, 20 mM Tris-HCl, pH 7.5, 3 mM MnCl2, 3 mM MgCl2, 1 mM DTT, 0.01 mM Na3VO4, 250 μg/mL PEG 20'000, 10 μg/mL poly(Glu,Tyr) 4:1, 1% DMSO and 4.0 μM ATP (γ-[^33P]-ATP 0.1 μCi). FGFR-3-K650E included 10 ng of GST-FGFR-3-K650E, 20 mM Tris-HCl, pH 7.5, 3 mM MnCl2, 3 mM MgCl2, 1 mM DTT, […], 10 μg/mL poly(Glu,Tyr) 4:1, 1% DMSO and 4.0 μM ATP (γ-[^33P]-ATP 0.1 μCi).The activity was assayed in the presence or absence of inhibitors, by measuring the incorporation of ^33P from [γ^33P] ATP into poly(Glu,Tyr) 4:1. The assay was carried out in 96-well plates at ambient temperature for 30 min under conditions described below and terminated by the addition of 50 μL of 125 mM EDTA. Subsequently, 60 μL of the reaction mixture were transferred onto Immobilon-PVDF membrane (Millipore) previously soaked for 5 min with methanol, rinsed with water, then soaked for 5 min with 0.5% H3PO4 and mounted on vacuum manifold with disconnected vacuum source. After spotting all samples, vacuum was connected and each well rinsed with 200 μL 0.5% H3PO4. Membranes were removed and washed 4× on a shaker with 1.0% H3PO4, once with ethanol. Membranes were counted after drying at ambient temperature, mounting in Packard TopCount 96-well frame, and addition of 10 μL/well of Microscint™ (Packard). […]

KDR = target: T3, KDR (Homo sapiens, UniProt P35968); assay: Inhibitory activity against KDR (VEGF-R2), in vitro data of Examples 170 and 207; settings: 10 μM; Examples 1 to 169; read-out: KDR inhibition at 10 μM
T3 construct: expressed in transfected cells; host or cells: CHO cells
Description: (Controls comprise medium without test compounds). After two hours of incubation at 37° C., recombinant VEGF is added; the final VEGF concentration is 20 ng/ml. After a further five minutes incubation at 37° C., the cells are washed twice with ice-cold PBS (phosphate-buffered saline) and immediately lysed in 100 μl lysis buffer per well. The lysates are then centrifuged to remove the cell nuclei, and the protein concentrations of the supernatants are determined using a commercial protein assay (BIORAD). The lysates can then either be immediately used or, if necessary, stored at −20° C. […] The plates are then washed and the remaining free protein-binding sites are saturated with 3% TopBlock® (Juro, Cat. # TB232010) in phosphate buffered saline with Tween 20® (polyoxyethylen(20)sorbitane monolaurate, ICI/Uniquema) (PBST). The cell lysates (20 μg protein per well) are then incubated in these plates overnight at 4° C. together with an antiphosphotyrosine antibody coupled with alkaline phosphatase (PY20:AP from Zymed). […] The luminescence is measured in a Packard Top Count Microplate Scintillation Counter.

T2 sequence (Q02763 773-1124): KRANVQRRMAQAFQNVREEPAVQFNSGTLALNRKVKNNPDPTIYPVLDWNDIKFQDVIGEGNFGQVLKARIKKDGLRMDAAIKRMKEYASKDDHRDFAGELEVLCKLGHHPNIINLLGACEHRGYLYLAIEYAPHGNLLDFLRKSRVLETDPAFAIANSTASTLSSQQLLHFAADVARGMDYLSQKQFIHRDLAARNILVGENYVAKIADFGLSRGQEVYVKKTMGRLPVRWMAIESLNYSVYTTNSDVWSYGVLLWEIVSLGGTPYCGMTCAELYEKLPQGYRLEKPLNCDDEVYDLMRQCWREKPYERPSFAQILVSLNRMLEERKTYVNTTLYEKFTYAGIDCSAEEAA
T1 sequence (P22607 411-806 K650E): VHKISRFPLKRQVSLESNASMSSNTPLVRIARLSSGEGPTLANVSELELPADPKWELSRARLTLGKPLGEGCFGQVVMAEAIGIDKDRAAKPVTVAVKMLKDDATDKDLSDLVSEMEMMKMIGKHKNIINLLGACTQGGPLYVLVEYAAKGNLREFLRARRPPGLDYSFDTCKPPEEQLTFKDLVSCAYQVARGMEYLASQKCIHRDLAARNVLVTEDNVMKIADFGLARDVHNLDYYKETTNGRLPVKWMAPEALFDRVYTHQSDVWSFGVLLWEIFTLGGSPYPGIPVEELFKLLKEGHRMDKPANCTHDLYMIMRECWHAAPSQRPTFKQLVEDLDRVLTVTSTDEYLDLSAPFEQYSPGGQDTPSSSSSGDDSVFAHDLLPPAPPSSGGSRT
T3 sequence (P35968 20-1356): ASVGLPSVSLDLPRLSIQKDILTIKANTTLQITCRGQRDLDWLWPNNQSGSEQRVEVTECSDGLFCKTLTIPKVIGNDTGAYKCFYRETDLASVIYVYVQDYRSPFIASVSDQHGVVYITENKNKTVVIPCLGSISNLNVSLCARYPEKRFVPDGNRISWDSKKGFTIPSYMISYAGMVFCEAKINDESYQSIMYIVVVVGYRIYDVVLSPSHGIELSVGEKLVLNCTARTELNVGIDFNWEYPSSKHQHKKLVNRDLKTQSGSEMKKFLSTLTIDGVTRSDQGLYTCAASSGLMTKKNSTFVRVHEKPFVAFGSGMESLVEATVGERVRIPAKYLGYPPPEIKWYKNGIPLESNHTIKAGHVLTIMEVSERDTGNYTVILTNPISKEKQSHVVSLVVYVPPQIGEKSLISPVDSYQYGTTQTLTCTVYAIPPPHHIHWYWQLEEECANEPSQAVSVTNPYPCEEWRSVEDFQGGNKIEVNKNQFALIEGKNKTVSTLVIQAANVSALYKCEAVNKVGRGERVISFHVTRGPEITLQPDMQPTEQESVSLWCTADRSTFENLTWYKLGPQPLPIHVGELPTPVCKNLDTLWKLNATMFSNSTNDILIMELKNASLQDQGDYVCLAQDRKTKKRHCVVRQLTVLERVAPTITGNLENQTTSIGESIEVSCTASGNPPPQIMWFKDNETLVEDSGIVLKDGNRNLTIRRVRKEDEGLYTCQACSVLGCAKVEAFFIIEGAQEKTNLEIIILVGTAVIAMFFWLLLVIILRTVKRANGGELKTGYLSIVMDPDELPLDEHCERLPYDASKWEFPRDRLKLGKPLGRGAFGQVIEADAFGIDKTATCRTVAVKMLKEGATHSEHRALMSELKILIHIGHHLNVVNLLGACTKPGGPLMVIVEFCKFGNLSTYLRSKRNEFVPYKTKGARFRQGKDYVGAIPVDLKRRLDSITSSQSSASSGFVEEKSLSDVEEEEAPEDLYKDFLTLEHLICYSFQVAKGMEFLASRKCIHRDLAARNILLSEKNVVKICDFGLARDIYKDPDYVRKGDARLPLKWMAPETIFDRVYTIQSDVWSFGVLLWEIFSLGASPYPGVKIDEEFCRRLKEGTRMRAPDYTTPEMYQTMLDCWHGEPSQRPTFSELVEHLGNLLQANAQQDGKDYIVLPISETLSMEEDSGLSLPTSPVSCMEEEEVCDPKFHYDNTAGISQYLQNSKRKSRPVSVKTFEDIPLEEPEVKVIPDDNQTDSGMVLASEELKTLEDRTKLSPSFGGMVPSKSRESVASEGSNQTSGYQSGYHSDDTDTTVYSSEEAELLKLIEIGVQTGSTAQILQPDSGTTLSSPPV

inhibition at 10 µM (FGFR3 (K650E)) [%] | inhibition at 10 µM (Tek) [%] | inhibition at 10 µM (KDR) [%] | Compound
27 to 100 | 12 to 100 | 67 to 100 | CCN(CC)CCCOc1ccc(Nc2cc(NC(=O)Nc3ccccc3Cl)ncn2)cc1 [Example 102, 1-(2-Chloro-phenyl)-3-{6-[4-(3-diethylamino-propoxy)-phenylamino]-pyrimidin-4-yl}-urea]
27 to 100 | 12 to 100 | 67 to 100 | CN(C(=O)Nc1c(Cl)cccc1Cl)c1cc(Nc2ccc(F)cc2)ncn1 [Example 123, 3-(2,6-Dichloro-phenyl)-1-[6-(4-fluoro-phenylamino)-pyrimidin-4-yl]-1-methyl-urea]
27 to 100 | 12 to 100 | 67 to 100 | O=C(Nc1cc(Nc2ccc(F)cc2)ncn1)Nc1c(Cl)cccc1Cl [Example 115, 1-(2,6-Dichloro-phenyl)-3-[6-(4-fluoro-phenylamino)-pyrimidin-4-yl]-urea]
27 to 100 | 12 to 100 | 67 to 100 | CCN(CC)CCOc1ccc(Nc2cc(N(C)C(=O)Nc3c(Cl)c(OC)cc(OC)c3Cl)ncn2)cc1 [Example 152, 3-(2,6-Dichloro-3,5-dimethoxy-phenyl)-1-{6-[4-(2-diethylamino-ethoxy)-phenylamino]-pyrimidin-4-yl}-1-methyl-urea]
27 to 100 | 12 to 100 | 67 to 100 | Cc1cccc(Cl)c1NC(=O)Nc1cc(Nc2cccc(N3CCN(C)CC3)c2)ncn1 [Example 7, 1-(2-Chloro-6-methyl-phenyl)-3-{6-[3-(4-methyl-piperazin-1-yl)-phenyl-amino]-pyrimidin-4-yl}-urea]
 | 12 to 100 | 67 to 100 | COc1cc(NC(=O)N(C)c2cc(Nc3ccc(N4CCN(C)CC4)cc3)ncn2)cc(OC)c1 [Example 47, 3-(3,5-Dimethoxy-phenyl)-1-methyl-1-{6-[4-(4-methyl-piperazin-1-yl)-phenylamino]-pyrimidin-4-yl}-urea]
27 to 100 | 12 to 100 | 67 to 100 | CCN(CC)c1ccc(Nc2cc(NC(=O)Nc3c(F)cccc3F)ncn2)cc1 [Example 105, 1-[6-(4-Diethylamino-phenylamino)-pyrimidin-4-yl]-3-(2,6-difluoro-phenyl)-urea]
27 to 100 | 12 to 100 | 67 to 100 | COc1cccc(NC(=O)Nc2cc(Nc3cccc(Cl)c3)ncn2)c1 [Example 131, 1-[6-(3-Chloro-phenylamino)-pyrimidin-4-yl]-3-(3-methoxy-Phenyl)-urea]
27 to 100 | 12 to 100 | 67 to 100 | O=C(Nc1cc(Nc2cccc(Cl)c2)ncn1)Nc1ccccc1Cl [Example 128, 3-(2-Chloro-phenyl)-1-[6-(3-chloro-phenylamino)-pyrimidin-4-yl]-urea]
 | 12 to 100 | 67 to 100 | COc1cc(OC)c(Cl)c(NC(=O)N(C)c2cc(Nc3cccc(CN(C)C)c3)ncn2)c1Cl [Example 144, 3-(2,6-Dichloro-3,5-dimethoxy-phenyl)-1-[6-(3-dimethylaminomethyl-phenylamino)-pyrimidin-4-yl]-1-methyl-urea]
 | 12 to 100 | 67 to 100 | COc1cc(NC(=O)Nc2cc(Nc3ccc(N4CCN(C)CC4)cc3)ncn2)c(Cl)c(OC)c1 [Example 40, 1-(2-Chloro-3,5-dimethoxy-phenyl)-3-{6-[4-(4-methyl-Piperazin-1-yl)-phenyl-amino]-pyrimidin-4-yl}-urea]
 | 12 to 100 | 67 to 100 | COc1cc(NC(=O)N(C)c2cc(Nc3ccc(N4CCN(C)CC4)cc3)ncn2)c(Cl)c(OC)c1 [Example 50, 3-(2-Chloro-3,5-dimethoxy-phenyl)-1-methyl-1-{6-[4-(4-methyl-piperazin-1-yl)-phenylamino]-pyrimidin-4-yl}-urea]
 | 12 to 100 | 67 to 100 | COc1ccc(Cl)c(NC(=O)Nc2cc(Nc3ccc(N4CCN(C)CC4)cc3)ncn2)c1 [Example 28, 1-(2-Chloro-5-methoxy-phenyl)-3-{6-[4-(4-methyl-piperazin-1-yl)-phenyl-amino]-pyrimidin-4-yl}-urea]
 | 12 to 100 | 67 to 100 | CCN(C(=O)Nc1cc(OC)cc(OC)c1Cl)c1cc(Nc2ccc(N3CCN(C)CC3)cc2)ncn1 [Example 55, 3-(2-Chloro-3,5-dimethoxy-phenyl)-1-ethyl-1-{6-[4-(4-methyl-piperazin-1-yl)-phenylamino]-pyrimidin-4-yl}-urea]
 | 12 to 100 | 67 to 100 | COc1cc(OC)c(Cl)c(NC(=O)N(C)c2cc(Nc3cccc(N4CCN(C)CC4)c3)ncn2)c1Cl [Example 3, 3-(2,6-Dichloro-3,5-dimethoxy-phenyl)-1-methyl-1-{6-[3-(4-methyl-piperazin-1-yl)-phenylamino]-pyrimidin-4-yl}-urea]
 | 12 to 100 | 67 to 100 | COc1ccc(Cl)c(NC(=O)Nc2cc(Nc3ccc(N4CCN(C)CC4)cc3)ncn2)c1Cl [Example 36, 1-(2,6-Dichloro-3-methoxy-phenyl)-3-{6-[4-(4-methyl-piperazin-1-yl)-phenyl-amino]-pyrimidin-4-yl}-urea]
 | 12 to 100 | 67 to 100 | COc1cc(OC)c(Cl)c(NC(=O)N(C)c2cc(Nc3ccc(OCCN4CCCC4)cc3)ncn2)c1Cl [Example 148, 3-(2,6-Dichloro-3,5-dimethoxy-phenyl)-1-methyl-1-{6-[4-(2-pyrrolidin-1-yl-ethoxy)-phenylamino]-pyrimidin-4-yl}-urea]
 | 12 to 100 | 67 to 100 | COc1cc(OC)c(Cl)c(NC(=O)N(C)c2cc(Nc3ccc(CCCN(C)C)cc3)ncn2)c1Cl [Example 147, 3-(2,6-Dichloro-3,5-dimethoxy-phenyl)-1-{6-[4-(3-dimethylamino-propyl)-phenylamino]-pyrimidin-4-yl}-1-methyl-urea]
